The results in this text go back to paper PMC6222747, “Synthesis and Structure-Activity Relationship of Daphnetin Derivatives as Potent Antioxidant Agents” (Molecules : A Journal of Synthetic Chemistry and Natural …, 2018).

As a reminder, the EC50 is the concentration giving half of the maximal effect.

Common to all, as to assay type: biochemical
A short description of assay [1]: ABTS+ radical scavenging assay. Conditions: 3 min at room temperature, absorbance 734 nm, triplicate. How it is done: (§1) The antioxidant activity is influenced by many factors, which cannot be fully described with a single antioxidant assay. Thus, in this study, antioxidant activities in vitro were evaluated using the free radical scavenging effect on 2,2′-diphenyl-1-picrylhydrazyl (DPPH), 2,2′-azinobis-(3-ethylbenzthiazoline-6-sulfonate) cation (ABTS^+). and the ferric reducing power (FRAP) assay, respectively, according to the literature with a slight modification.
The mixture was incubated in the dark at room temperature for 15–16 h before use. […] Each sample solution (0.1 mL) was added to 3.9 mL ABTS^+ solution, and the absorbance was measured at room temperature after 3 min. The Trolox standard solution (concentration range: 0–0.4 mmol/L) in ethanol was analyzed under the same conditions as those used for the calibration. […]

A short description of assay [2]: DPPH radical scavenging assay. The conditions noted are these: for DPPH antioxidant activity compared with DAP 1, result in words: DPPH assay; for EC50: DPPH radical scavenging, 30 min at room temperature, absorbance 517 nm, triplicate. How it is done: as §1
Each sample in an ethanol solution (0.1 mL) was added to 3.9 mL DPPH ethanol solution (0.1 mmol/L). The solution was vortexed for 10 s and incubated at room temperature for 30 min. […] The Trolox standard solution (concentration range: 0–0.4 mmol/L) in ethanol was analyzed under the same conditions as those used for calibration. […]

Assay [3] in a line: Ferric reducing power (FRAP) assay. The conditions noted are these: for reducing antioxidant power, fold higher than that of the standard antioxidant Trolox: relative to Trolox; for reducing antioxidant power (FRAP), result in words: compared with daphnetin or the parent compound. The protocol: as §1
The FRAP (ferric reducing antioxidant power) reagent was prepared with acetate buffer (300 mmol/L, pH 3.6), 2,4,6-tripyridyl-s-triazine (TPTZ) (10 mmol/L in HCl, 40 mmol/L) and FeCl3 (20 mmol/L). The proportions were 10:1:1 (v:v:v), respectively. Each sample solution was added to the FRAP reagent (1:30, v:v) and incubated at 37 °C for 5 min. The absorbance was determined at 593 nm using a spectrophotometer (Hitachi U-2800 Spectrophotometer, Tokyo, Japan). The Trolox standard solution (concentration range: 0–0.4 mmol/L) in ethanol was analyzed under the same conditions as those used for the calibration. The values of the reducing power were determined using a calibration curve of Trolox and expressed as the Trolox equivalent ([…], mmolTrolox/mmol sample).

On to `O=c1oc2c(O)c(O)ccc2cc1-c1ccccc1` [Compound 13], for which, in assay [1], it took 108 ± 1.42 µM to reach a half-maximal effect (EC50). For the same compound, in assay [2], the “DPPH antioxidant activity compared with DAP 1, result in words” value is given as “more effective” and the EC50 came out at 43.7 ± 2.08 µM.

For `N#Cc1cc2ccc(O)c(O)c2oc1=O` [Compound 14], the EC50 in assay [1] came out at 95.8 ± 4.18 µM; in assay [2], 47 ± 2.05 µM. In addition, the “reducing antioxidant power, fold higher than that of the standard antioxidant Trolox” value in assay [3] amounted to 3 fold.

With `CC(=O)Oc1ccc2ccc(=O)oc2c1OC(C)=O` [Compound 12, 2-oxo-2H-Chromene-7,8-diyl diacetate], the concentration for a half-maximal effect (EC50) stood at 4560 ± 50.1 µM in assay [1] and 698 ± 5.22 µM in assay [2].

As to `O=C(O)c1cc2ccc(O)c(O)c2oc1=O` [Compound 16], the figures for the concentration giving a half-maximal response (EC50) in assay [1] and in assay [2] were 146 ± 5.77 µM and 37.7 ± 1.16 µM, respectively. Besides, in assay [3], the “reducing antioxidant power (FRAP), result in words” value (shortened to “reducing antioxidant power (FRAP)”) is listed as “little effect on its antioxidant activity”.

Take `CCOC(=O)c1cc2ccc(O)c(O)c2oc1=O` [Compound 17]: the EC50 in assay [1] turned out to be 138.9 ± 0.14 µM; in assay [2], 44 ± 0.89 µM. Further, the “reducing antioxidant power (FRAP)” value in assay [3] is on record as “this situation did not change”.

In the case of `O=C(O)c1c(-c2nc3ccccc3s2)c(=O)oc2c(O)c(O)ccc12` [Compound 21, 3-(Benzo[d]thiazol-2-yl)-7,8-dihydroxy-2-oxo-2H-chromene-4-carboxylic acid], the EC50 in assay [1] is 108 ± 6.35 µM; in assay [2] it was 130 ± 3.54 µM. Further, the “reducing antioxidant power (FRAP)” value in assay [3] is on record as “significant decrease in antioxidant activity”.

`CC(=O)c1cc2ccc(O)c(O)c2oc1=O` [Compound 15]: the concentration giving a half-maximal response (EC50) was 80.52 ± 0.61 µM in assay [1] and 50.6 ± 0.61 µM in assay [2]. Moreover, the “reducing antioxidant power, fold higher than that of the standard antioxidant Trolox” value in assay [3] is 3 fold.

As for `[N-]=[N+]=NCc1cc(=O)oc2c(O)c(O)ccc12` [Compound 8, 7,8-Dihydroxy-4-azidemethyl-2H-chromen-2-one], the EC50 is 238 ± 4.47 µM in assay [1] and 62.2 ± 3.73 µM in assay [2]. Also, in assay [3], the “reducing antioxidant power (FRAP)” value is given as “markedly decreased antioxidant activity”.

In the case of `Cc1c(C(F)(F)F)c2ccc(O)c(O)c2oc1=O` [Compound 24, 7,8-Dihydroxy-3-methyl-4-(trifluoromethyl)-2H-chromen-2-one], the EC50 in assay [1] stood at 107 ± 6.23 µM; in assay [2] it was 53.8 ± 2.25 µM.

On to `Cc1c(C)c2c(c(C)c1O)CCC(C)(C(=O)O)O2` (stereo not drawn) [Trolox, 6-hydroxy-2,5,7,8-tetramethylchroman-2-carboxylic acid, reference compound], for which the concentration giving a half-maximal response (EC50) was 241 ± 2.52 µM in assay [1] and 53.2 ± 2.02 µM in assay [2].

On to `NC(=O)c1c(-c2nc3ccccc3s2)c(=O)oc2c(O)c(O)ccc12` [Compound 22, 3-(benzo[d]thiazol-2-yl)-7,8-dihydroxy-2-oxo-2H-chromene-4-carboxamide], for which the EC50 in assay [1] stood at 122 ± 4.41 µM; in assay [2], 66.8 ± 1.38 µM. Further, in assay [3], the “reducing antioxidant power (FRAP)” value is reported as “lower antioxidant activity compared with that of compound 19”.

On to `COc1cc2ccc(=O)oc2c(O)c1O` [Compound 11, Fraxetin, reference compound], for which the EC50 is 173 ± 4.83 µM in assay [1] and 45.6 ± 1.48 µM in assay [2].

On to `C#CCNC(=O)c1cc2ccc(O)c(O)c2oc1=O` [Compound 18], for which the EC50 in assay [1] came to 91.2 ± 2.29 µM; in assay [2] it was 55.6 ± 1.48 µM. Further, in assay [3], the “reducing antioxidant power (FRAP)” value was “this situation did not change”.

For `O=c1oc2c(O)c(O)ccc2c(-c2nnn[nH]2)c1-c1nc2ccccc2s1` [Compound 23, 3-(Benzo[d]thiazol-2-yl)-7,8-dihydroxy-4-(1H-tetrazol-5-yl)-2H-chromen-2-one], the EC50 worked out at 121.7 ± 0.22 µM in assay [1] and 168 ± 11.6 µM in assay [2]. Besides, the “reducing antioxidant power (FRAP)” value in assay [3] was “lower antioxidant activity compared with that of compound 19”.

Regarding `O=c1cc(-c2ccccc2)c2ccc(O)c(O)c2o1` [Compound 3, 7,8-Dihydroxy-4-phenyl-2H-chromen-2-one], the EC50 in assay [1] worked out at 198 ± 28.2 µM. The “reducing antioxidant power (FRAP)” value in assay [3] is listed as “decreased activities of daphnetin but were still superior to Trolox”. In assay [2], the “DPPH antioxidant activity compared with DAP 1, result in words” value is “lower than that of DAP 1” and the EC50 worked out at 55.6 ± 0.78 µM.

Take `O=c1oc2c(O)c(O)ccc2cc1-c1nc2ccccc2s1` [Compound 19]: the results for the EC50 in assay [1] and in assay [2] were 86.6 ± 3.17 µM and 71.3 ± 2.4 µM, respectively. Also, the “reducing antioxidant power (FRAP)” value in assay [3] is “slightly reduced antioxidant activity”.

`CC(C)(C)c1cc(=O)oc2c(O)c(O)ccc12` [Compound 4, 7,8-Dihydroxy-4-tert-butyl-2H-chromen-2-one]: the concentration for a half-maximal effect (EC50) in assay [1] worked out at 234.7 ± 2.03 µM; in assay [2], 65.5 ± 2.84 µM. For the same compound, the “reducing antioxidant power (FRAP)” value in assay [3] is “decreased activities of daphnetin but were still superior to Trolox”.

For the compound “Methyl 2-(7,8-dihydroxy-2-oxo-2H-chromen-4-yl)acetic acid [Compound 10]”, the 50% effective concentration (EC50) was 222.7 ± 1.84 µM in assay [1] and 50.2 ± 1.12 µM in assay [2]. In addition, in assay [3], the “reducing antioxidant power (FRAP)” value was “significant decrease in antioxidant activity”.

On to `O=c1cc(C(F)(F)F)c2ccc(O)c(O)c2o1` [Compound 5, 7,8-Dihydroxy-4-trifluoromethyl-2H-chromen-2-one], for which the EC50 in assay [1] came to 75.2 ± 1.58 µM; in assay [2], 45.7 ± 1.26 µM. For the same compound, the “reducing antioxidant power (FRAP)” value in assay [3] is “three-fold increase in reducing antioxidant power”.
